Experimental data: patent US6376666B1 (Nauchno-Issledovatelsky Institut Farmakologii Rossiiskoi …, priority 1994, dated 2002)
Marks after values point to notes of the source that are not given here.

What was measured:
[1] = system: C57B1/6 mice; test: open-field test, C57B1/6 mice (active type of emotional-stress reaction); assay type: in vivo; parameters: key to Total activity: sum of all locomotor activity counts (crossings + rearings) in 3 min; settings: for effect on locomotor activity of C57B1/6 mice in open-field test, in words: i.p., doses that activate Balb/c mice; for Central activity (crossings) / Number of defecations / Peripheral activity (crossings) / Total activity / Vertical activity (rearings): M ± mx
Summary of the method: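 Male mice, 20-22 g, dosed i.p. in water 30 min before a 3-min open-field test after 1 min in darkness; peripheral, central, rearing and total activity plus defecations recorded; Student t-test. Anxiolysis read as Balb/c activation, sedation as C57B1/6 inhibition.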

[2] = system: ischemized myocardium of cats; test: ST-segment elevation during 5 min occlusions of coronary artery (acute coronary deficiency); assay type: in vivo; settings: for change in mean elevation of ST-segment vs control occlusion: cats, 1.0 mg/kg i.v.
Description: These experiments were conducted in cats weighing 2,5-4,0 kg under anasthesia by i.v. injection of nembutal (40 mg/kg) in open chest conditions. Epicardium electrogram in 3-4 leads was registered in “Mingograph-81”. The value of mean elevation of ST-segment during 5 min occlusions of anterior left descending coronary artery with 15 min reperfusions between them was the main index of intensity of reversible ischemized damage of myocardium.
The statistical calculation was carried out with non-parametric Wilcocson method for associated variants.

[3] = system: outbred male rats; test: conflict Vogel test (punished licking of water); assay type: in vivo; settings: M ± mx
Description: The study of anxiolytic activity of chosen compounds was carried out in the experiments with outbred male rats weighing 180-200 g in standard conflict Vogel' procedure [Voronina T. A. et al., in: “Phenazepam”, Naukova Dumka, Kiev, 1982, p.89, 93, 146]. The main aim of the initial step of experiments was the training of rats to develop the feeling of thirst with following experience of water licking from bottle in the experimental chamber. The animals were deprived of water for 24 hours and were placed in the test chamber for 5-min adaptation period during which they had free access to the drinking bottle. After another 24 h deprivation period the rats were placed again in the test chamber and were allowed to drink water for 5 sec. Immediately afterwards drinking attempts were punished by electric shock (0,5 mA). Under this collision of drinking and protective reflexes the extremal situation was developed. In this situation the anxiety of punishment prevented the licking process. The number of shocks received throughout a 5-min experimental session was recorded.

[4] = system: outbred male mice; test: rotarod test (myorelaxant activity); assay type: in vivo; settings: for time of remaining on the rotarod: cut-off 120 sec
Description: The myorelaxant activity of choosen compounds were studied in the outbred male mice weighing 22-25 g in rotarod test [Voronina T. A. et al., in: “Phenazepam”, Naukova Dumka, Kiev, 1982, p.145]. The animals were placed on the horizontal rotarod (D=2 cm) calibrated for a fixed speed of 4 rpm. According to the rotarod experimental protocol, normal motor coordination was defined by the ability of the animals to remain on the rotarod for an arbitrarily selected time of 120 sec.

[5] = acute toxicity after per os administration; settings: mouse, in vivo, oral; outbred mice, per os, 1% starch suspension, Litchfield-Wilcocson
Description: (§1) The acute toxicity was measured in outbred mice after per os administration of used drugs in the 1% starch suspension. The lethal doses were calculated according to Litchfield-Wilcocson' method. […].

[6] = system: outbred mice; test: acute toxicity after per os administration; settings: mouse, in vivo
Description: as §1

CCOc1ccc2nc(SCCN(CC)CC)[nH]c2c1 [Compound IX, 2-[2-(Diethylamino)ethylthio]-5-ethoxybenz-imidazole]
effect on locomotor activity of C57B1/6 mice in open-field test, in words [1]: without any changes in locomotor activity
change in mean elevation of ST-segment vs control occlusion ([2]; occlusion 20 min after injection, 15 sec of reperfusion): −0.8* mv
change in mean elevation of ST-segment vs control occlusion ([2]; occlusion 20 min after injection, 30 sec of occlusion): −0.7 mv
change in mean elevation of ST-segment vs control occlusion ([2]; occlusion 20 min after injection, 2 min of occlusion): −1.4* mv
change in mean elevation of ST-segment vs control occlusion ([2]; occlusion 20 min after injection, 3 min of occlusion): −1.4* mv
change in mean elevation of ST-segment vs control occlusion ([2]; occlusion 20 min after injection, 5 min of occlusion): −1.2 mv
change in mean elevation of ST-segment vs control occlusion ([2]; occlusion 40 min after injection, 15 sec of reperfusion): −1.0* mv
change in mean elevation of ST-segment vs control occlusion ([2]; occlusion 40 min after injection, 30 sec of occlusion): −0.5 mv
change in mean elevation of ST-segment vs control occlusion ([2]; occlusion 40 min after injection, 1 min of occlusion): −0.5* mv
change in mean elevation of ST-segment vs control occlusion ([2]; occlusion 40 min after injection, 2 min of occlusion): −1.0* mv
change in mean elevation of ST-segment vs control occlusion ([2]; occlusion 40 min after injection, 3 min of occlusion): −1.2 mv
change in mean elevation of ST-segment vs control occlusion ([2]; occlusion 40 min after injection, 5 min of occlusion): −1.0 mv
change in mean elevation of ST-segment vs control occlusion ([2]; occlusion immediately after injection, 15 sec of reperfusion): −1.2* mv
change in mean elevation of ST-segment vs control occlusion ([2]; occlusion immediately after injection, 30 sec of occlusion): −1.8** mv
change in mean elevation of ST-segment vs control occlusion ([2]; occlusion immediately after injection, 1 min of occlusion): −1.9** mv
change in mean elevation of ST-segment vs control occlusion ([2]; occlusion immediately after injection, 2 min of occlusion): −2.4** mv
change in mean elevation of ST-segment vs control occlusion ([2]; occlusion immediately after injection, 3 min of occlusion): −1.9** mv
change in mean elevation of ST-segment vs control occlusion ([2]; occlusion immediately after injection, 5 min of occlusion): −2.2** mv
duration of anti-ischemic effect after injection ([2]; cats, 1,0 mg/kg i.v.): 40 min
effect on mean elevation of ST-segment during 5 min occlusion, in words ([2]; cats, 1,0 mg/kg i.v.): decreased the mean elevation of ST-segment

CCOc1ccc2nc(SCCN3CCOCC3)[nH]c2c1 [XII, 2-[2-(Morpholino)ethylthio]-5-ethoxybenzimidazole]
Central activity (crossings) ([1]; 0.1 mg/kg i.p.): 18.3 ± 1.9
Number of defecations ([1]; 0.1 mg/kg i.p.): 1.3 ± 0.3
Peripheral activity (crossings) ([1]; 0.1 mg/kg i.p.): 92.9 ± 5.4
Total activity ([1]; 0.1 mg/kg i.p.): 123.6 ± 8.4
Vertical activity (rearings) ([1]; 0.1 mg/kg i.p.): 12.5 ± 1.1
Central activity (crossings) ([1]; 1.0 mg/kg i.p.): 20.4 ± 2.3
Number of defecations ([1]; 1.0 mg/kg i.p.): 0.5 ± 0.5
Peripheral activity (crossings) ([1]; 1.0 mg/kg i.p.): 86.6 ± 4.3
Total activity ([1]; 1.0 mg/kg i.p.): 123.5 ± 8.4
Vertical activity (rearings) ([1]; 1.0 mg/kg i.p.): 16.5 ± 1.8
Central activity (crossings) ([1]; 10.0 mg/kg i.p.): 36.0 ± 4.9
Number of defecations ([1]; 10.0 mg/kg i.p.): 0.6 ± 0.6
Peripheral activity (crossings) ([1]; 10.0 mg/kg i.p.): 86.6 ± 10.9
Total activity ([1]; 10.0 mg/kg i.p.): 140.2 ± 19.0
Vertical activity (rearings) ([1]; 10.0 mg/kg i.p.): 17.6 ± 3.2
Central activity (crossings) ([1]; 20.0 mg/kg i.p.): 23.4 ± 4.9
Number of defecations ([1]; 20.0 mg/kg i.p.): 1.8 ± 0.6
Peripheral activity (crossings) ([1]; 20.0 mg/kg i.p.): 86.4 ± 4.0
Total activity ([1]; 20.0 mg/kg i.p.): 127.2 ± 11.6
Vertical activity (rearings) ([1]; 20.0 mg/kg i.p.): 17.4 ± 2.7
Central activity (crossings) ([1]; 30.0 mg/kg i.p.): 26.3 ± 10.2
Number of defecations ([1]; 30.0 mg/kg i.p.): 0.1 ± 0.1
Peripheral activity (crossings) ([1]; 30.0 mg/kg i.p.): 53.0 ± 5.7
Total activity ([1]; 30.0 mg/kg i.p.): 87.9 ± 17.5
Vertical activity (rearings) ([1]; 30.0 mg/kg i.p.): 8.3 ± 4.6
Central activity (crossings) ([1]; 50.0 mg/kg i.p.): 13.9 ± 5.3
Number of defecations ([1]; 50.0 mg/kg i.p.): 0.5 ± 0.3
Peripheral activity (crossings) ([1]; 50.0 mg/kg i.p.): 67.1 ± 11.9
Total activity ([1]; 50.0 mg/kg i.p.): 90.1 ± 19.8
Vertical activity (rearings) ([1]; 50.0 mg/kg i.p.): 9.1 ± 2.6
effect on locomotor activity of C57B1/6 mice in open-field test, in words [1]: without any changes in locomotor activity
number of punished lickings (shocks received in 5-min session) ([3]; 1.0 mg/kg i.p.): 15.3 ± 3.4
number of punished lickings (shocks received in 5-min session) ([3]; 5.0 mg/kg i.p.): 19.0 ± 2.5
number of punished lickings (shocks received in 5-min session) ([3]; 10.0 mg/kg i.p.): 15.4 ± 2.5
number of punished lickings (shocks received in 5-min session) ([3]; 20.0 mg/kg i.p.): 28.0 ± 5.8
time of remaining on the rotarod ([4]; 0.01 mg/kg): 120.0 + 0 sec
time of remaining on the rotarod ([4]; 0.1 mg/kg): 120.0 + 0 sec
time of remaining on the rotarod ([4]; 1.0 mg/kg): 120.0 + 0 sec
time of remaining on the rotarod ([4]; 5.0 mg/kg): 120.0 + 0 sec
time of remaining on the rotarod ([4]; 10.0 mg/kg): 120.0 + 0 sec
time of remaining on the rotarod ([4]; 20.0 mg/kg): 118.8 ± 1.6 s
time of remaining on the rotarod ([4]; 50.0 mg/kg): 111.3 ± 7.5 s
effect on motor coordination in rotarod test, in words ([4]; dose range 0,01 mg/kg-50 mg/kg): no effect on the motor coordination
LD50 [5]: 1160 mg/kg
toxicity, conclusion in words [6]: not toxic
